Columns and labels:
SK4 K+ channel [1] = molecular target: T1, SK4 K+ channel (Homo sapiens, UniProt O15554); assay: whole-cell patch clamp; assay type: cell-based; settings: read-out: % inhibition at 0.5 μM
SK4 K+ channel [2] = molecular target: T1, SK4 K+ channel; assay type: cell-based

T1 sequence (O15554 whole entry): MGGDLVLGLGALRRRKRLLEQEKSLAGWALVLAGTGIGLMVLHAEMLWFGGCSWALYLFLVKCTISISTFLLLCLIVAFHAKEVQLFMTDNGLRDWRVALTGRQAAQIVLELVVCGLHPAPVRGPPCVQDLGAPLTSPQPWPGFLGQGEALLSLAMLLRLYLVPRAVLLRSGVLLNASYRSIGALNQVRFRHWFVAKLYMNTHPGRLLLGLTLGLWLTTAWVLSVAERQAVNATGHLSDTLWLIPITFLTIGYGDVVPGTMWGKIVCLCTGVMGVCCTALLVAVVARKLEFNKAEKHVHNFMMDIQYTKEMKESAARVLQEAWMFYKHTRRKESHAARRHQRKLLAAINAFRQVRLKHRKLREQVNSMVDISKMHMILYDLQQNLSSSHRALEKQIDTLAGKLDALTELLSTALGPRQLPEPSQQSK

Clc1ccccc1C(c1ccccc1)(c1ccccc1)n1cccn1 [Tram-34]
inhibition at 0.5 µM (SK4 K+ channel [1]): 86%

CCCCCCCC(=O)OC[C@H](COP(=O)(O)O[C@@H]1[C@H](O)[C@H](O)[C@@H](OP(=O)(O)O)[C@H](OP(=O)(O)O)[C@H]1O)OC(=O)CCCCCCC [diC8-PIP2]
EC50 (SK4 K+ channel [2]): 154 nM
